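Exposure lasted 48 hours, with cells grown in 96-well plates and compounds tested at five concentrations. Abbreviation: GI50, concentration required for 50% inhibition of growth.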 Calls of active or inactive are those of the source. Cut-off read from the data, not from the text of the source: active = GI50 up to about 1.1 µM and inactive = higher.

Test systems include MOLT-4; SF-295; BT-549; SNB-19; UACC-62; A498; ACHN; KM12; SNB-75; HL-60; SK-MEL-5; COLO 205; T47D; MDA-N; MCF7; SN12C; Malme-3M; NCI-H522; M14.
Test in all cases: NCI-60 cell line screen, 48 h

In the case of `CC(C)(C)C#CI1OC(=O)c2ccccc21`, the GI50 with MOLT-4 was 1.02 µM (active); with SF-295, 14.3 µM (inactive); in the experiment on BT-549 it was 3.16 µM (inactive); in the experiment on SNB-19 it was 9.27 µM (inactive); with UACC-62 it was 4.08 µM (inactive); in the experiment with A498 it was 6.07 µM (inactive). Further, the GI50 is 2.9 µM (inactive) in the experiment on ACHN; 6.85 µM (inactive) in the experiment with KM12; 7.28 µM (inactive) with SNB-75; 0.513 µM (active) with HL-60; 6.08 µM (inactive) with SK-MEL-5; 2.28 µM (inactive) with COLO 205. In addition, the GI50 was 3.68 µM (inactive) in the experiment on T47D; 4.17 µM (inactive) in the experiment with MDA-N; 4.03 µM (inactive) in the experiment with MCF7; 5.2 µM (inactive) in the experiment with SN12C; 3.03 µM (inactive) in the experiment with Malme-3M; 1.76 µM (inactive) with NCI-H522. Moreover, in the experiment on M14, the GI50 was 3.31 µM (inactive).
On to `Cc1nc2c(o1)C(=O)c1ccccc1/C2=N/c1ccc(N2CCOCC2)cc1`, for which the GI50 in the experiment on MOLT-4 was 4.91 µM (inactive); in the experiment with SF-295, 2.52 µM (inactive); in the experiment on BT-549, 2.12 µM (inactive); in the experiment with SNB-19, 8.47 µM (inactive); with UACC-62, 2.03 µM (inactive); in the experiment on A498 it was 18.7 µM (inactive). For the same compound, the GI50 with ACHN is 3.61 µM (inactive); in the experiment with KM12 it was 16 µM (inactive); in the experiment on SNB-75, 2.46 µM (inactive); in the experiment on HL-60, 1.83 µM (inactive); in the experiment with SK-MEL-5 it was 1.79 µM (inactive); with COLO 205, 23.7 µM (inactive). Also, the GI50 in the experiment on T47D is 3.01 µM (inactive); with MDA-N it was 1.93 µM (inactive); in the experiment on MCF7 it was 2.77 µM (inactive); in the experiment on SN12C, 3.18 µM (inactive); in the experiment with Malme-3M, 1.74 µM (inactive); in the experiment on NCI-H522, 2.48 µM (inactive). Also, in the experiment on M14, the GI50 is 1.8 µM (inactive).
Regarding `O=C(O)CN1CCNCCN(CC(=O)O)CCNCC1`, the GI50 in the experiment with MOLT-4 is 5.14 µM (inactive); in the experiment with SF-295 it was > 87.7 µM (inactive); with BT-549, > 85.5 µM (inactive); in the experiment with SNB-19, > 100 µM (inactive); with UACC-62, 38.8 µM (inactive); in the experiment on A498 it was 50 µM (inactive). Further, the GI50 was > 100 µM (inactive) in the experiment on ACHN; 5.75 µM (inactive) with KM12; > 21.5 µM (inactive) with SNB-75; 3.41 µM (inactive) with HL-60; 5.28 µM (inactive) with SK-MEL-5; 6.64 µM (inactive) with COLO 205. Moreover, the GI50 in the experiment on T47D is > 48.2 µM (inactive); with MDA-N, 10.9 µM (inactive); in the experiment on MCF7, 28.2 µM (inactive); in the experiment on SN12C, > 100 µM (inactive); with Malme-3M, 56.9 µM (inactive); in the experiment with NCI-H522, 14.7 µM (inactive). Moreover, the GI50 in the experiment with M14 is > 100 µM (inactive).
Regarding `Cc1cc2nnc(C(N)=O)c(N)c2cc1C`, the GI50 in the experiment with MOLT-4, in the experiment with SF-295, with BT-549, in the experiment on SNB-19, with UACC-62 and in the experiment on A498 was > 100 µM (inactive) each time. Besides, the GI50 was > 100 µM (inactive) in the experiment with ACHN; > 100 µM (inactive) in the experiment with KM12; 12.9 µM (inactive) with SNB-75; > 100 µM (inactive) with HL-60; > 100 µM (inactive) in the experiment with SK-MEL-5; > 100 µM (inactive) in the experiment with COLO 205. The GI50 is > 100 µM (inactive) with T47D; > 100 µM (inactive) with MDA-N; > 100 µM (inactive) in the experiment with MCF7; > 100 µM (inactive) in the experiment with SN12C; 38.4 µM (inactive) in the experiment with Malme-3M; 20 µM (inactive) in the experiment on NCI-H522. Also, in the experiment on M14, the GI50 was > 100 µM (inactive).
For `CCN(CC)c1ccc2cc(C(N)=O)/c(=N/c3ccc(F)cc3)oc2c1`, the GI50 in the experiment on MOLT-4 is > 100 µM (inactive); in the experiment on SF-295, 10.3 µM (inactive); with BT-549 it was > 100 µM (inactive); in the experiment on SNB-19, 25.5 µM (inactive); in the experiment with UACC-62, 26.4 µM (inactive); in the experiment with A498 it was 39.4 µM (inactive). Further, the GI50 in the experiment on ACHN was 40.8 µM (inactive); in the experiment on KM12, 17.6 µM (inactive); in the experiment with SNB-75 it was 20.4 µM (inactive); in the experiment on HL-60, > 100 µM (inactive); in the experiment on SK-MEL-5, > 100 µM (inactive); with COLO 205, > 100 µM (inactive). Moreover, the GI50 is 14.2 µM (inactive) with T47D; > 100 µM (inactive) in the experiment on MDA-N; 51.4 µM (inactive) in the experiment on MCF7; 45.4 µM (inactive) in the experiment with SN12C; 98.2 µM (inactive) in the experiment with Malme-3M; 11.6 µM (inactive) in the experiment with NCI-H522. Moreover, the GI50 in the experiment with M14 was > 100 µM (inactive).
With `COc1ccccc1NC(=S)N/N=C/c1ccccn1`, the GI50 in the experiment with MOLT-4 was 0.0115 µM (active); in the experiment with SF-295 it was 0.621 µM (active); with BT-549 it was 1.77 µM (inactive); with SNB-19 it was 4.17 µM (inactive); in the experiment with UACC-62, 0.466 µM (active); with A498, 0.255 µM (active). In addition, the GI50 is 0.11 µM (active) with ACHN; 0.597 µM (active) in the experiment with KM12; 3.37 µM (inactive) with SNB-75; 0.0214 µM (active) with HL-60; 0.252 µM (active) in the experiment with SK-MEL-5; 0.0352 µM (active) in the experiment on COLO 205. The GI50 in the experiment on T47D is 0.0867 µM (active); with MDA-N, 1.29 µM (inactive); in the experiment with MCF7, 0.0504 µM (active); in the experiment on SN12C, 0.74 µM (active); in the experiment on Malme-3M, 0.193 µM (active); in the experiment on NCI-H522, < 0.0157 µM (active). For the same compound, the GI50 with M14 is 0.0692 µM (active).
With `O=C1C(Br)=C(Br)C(=O)c2c(O)ccc(O)c21`, the GI50 was 0.0733 µM (active) with MOLT-4; 17.8 µM (inactive) in the experiment with SF-295; 13.9 µM (inactive) in the experiment with BT-549; 18.3 µM (inactive) in the experiment on SNB-19; 11.2 µM (inactive) in the experiment with UACC-62; 21.7 µM (inactive) in the experiment with A498. Also, the GI50 was 2.48 µM (inactive) in the experiment with ACHN; 11.4 µM (inactive) with KM12; 18.8 µM (inactive) with SNB-75; 0.168 µM (active) with HL-60; 9.14 µM (inactive) in the experiment on SK-MEL-5; 1.09 µM (active) in the experiment on COLO 205. The GI50 with T47D is 2.19 µM (inactive); in the experiment on MDA-N, 2.49 µM (inactive); with MCF7, 2.42 µM (inactive); in the experiment on SN12C, 7.66 µM (inactive); in the experiment with Malme-3M, 1.45 µM (inactive); in the experiment with NCI-H522 it was 0.287 µM (active). The GI50 in the experiment on M14 was 1.85 µM (inactive).
For the compound `CN(C)c1ccc(/C=C(\NC(=O)c2ccccc2)C(=O)Nc2ccccc2C(=O)NCc2ccccc2)cc1`, the GI50 with MOLT-4 was 56.4 µM (inactive); in the experiment on SF-295, > 100 µM (inactive); with BT-549, > 100 µM (inactive); in the experiment with SNB-19 it was 85.5 µM (inactive); in the experiment on UACC-62, > 100 µM (inactive); with A498 it was > 100 µM (inactive). Besides, the GI50 with ACHN was > 100 µM (inactive); in the experiment on KM12, 58.5 µM (inactive); in the experiment with SNB-75, 0.0955 µM (active); with HL-60, 40.6 µM (inactive); in the experiment with SK-MEL-5, 41.9 µM (inactive); in the experiment on COLO 205 it was > 100 µM (inactive). The GI50 in the experiment with T47D was > 100 µM (inactive); with MDA-N it was > 100 µM (inactive); in the experiment with MCF7 it was > 100 µM (inactive); with SN12C, > 100 µM (inactive); with Malme-3M, > 100 µM (inactive); with NCI-H522 it was 27.6 µM (inactive). Also, the GI50 in the experiment with M14 is 77.6 µM (inactive).
Turning to `CCC(C)OC(=O)/C(Br)=C1/OC(=O)c2ccccc2-c2ccccc21` (centres undefined), the GI50 with MOLT-4 was 6.85 µM (inactive); in the experiment on SF-295, 35.6 µM (inactive); in the experiment on BT-549 it was 18.8 µM (inactive); in the experiment on SNB-19 it was 49.5 µM (inactive); with UACC-62, 19.4 µM (inactive); with A498, 40.7 µM (inactive). In addition, the GI50 was 40.1 µM (inactive) in the experiment with ACHN; 23.8 µM (inactive) with KM12; 31.6 µM (inactive) in the experiment on SNB-75; > 100 µM (inactive) with HL-60; 21.2 µM (inactive) in the experiment on SK-MEL-5; 18.3 µM (inactive) in the experiment with COLO 205. Besides, the GI50 in the experiment on T47D was 58.2 µM (inactive); with MDA-N, 32.6 µM (inactive); with MCF7, 41 µM (inactive); in the experiment with SN12C, 34.2 µM (inactive); with Malme-3M, 29.7 µM (inactive); in the experiment on NCI-H522, 18.7 µM (inactive). Moreover, the GI50 with M14 was 32.1 µM (inactive).
For `COc1cc(C2c3cc4c(cc3OC(NCCc3ccccc3)C2C)OCO4)cc(OC)c1OC` (centres undefined), the GI50 in the experiment on MOLT-4 is 0.515 µM (active); in the experiment on SF-295, 0.2 µM (active); in the experiment with BT-549, 0.617 µM (active); in the experiment on SNB-19, 0.455 µM (active); with UACC-62 it was 0.388 µM (active); in the experiment on A498, 0.574 µM (active). For the same compound, the GI50 with ACHN is 1.36 µM (inactive); in the experiment on KM12 it was 0.316 µM (active); in the experiment with SNB-75, 0.198 µM (active); in the experiment on HL-60, 0.208 µM (active); with SK-MEL-5, 0.224 µM (active); with COLO 205 it was 0.242 µM (active). Further, the GI50 in the experiment with T47D is 0.295 µM (active); in the experiment on MDA-N, 0.0638 µM (active); with MCF7 it was 0.383 µM (active); in the experiment on SN12C, 0.698 µM (active); with Malme-3M, 0.231 µM (active); with NCI-H522, 0.248 µM (active). The GI50 in the experiment on M14 was 0.356 µM (active).
Take `CCC1(OC(=O)CNC)C(=O)OCc2c1cc1n(c2=O)Cc2cc3ccccc3nc2-1` (centres undefined): the GI50 was < 0.01 µM (active) in the experiment on MOLT-4; < 0.01 µM (active) in the experiment with SF-295; 0.0594 µM (active) with BT-549; < 0.01 µM (active) in the experiment on SNB-19; < 0.01 µM (active) in the experiment on UACC-62; < 0.0179 µM (active) in the experiment on A498. Further, the GI50 is < 0.01 µM (active) in the experiment on ACHN; 0.0685 µM (active) in the experiment with KM12; < 0.0104 µM (active) in the experiment on SNB-75; < 0.01 µM (active) with HL-60; < 0.0125 µM (active) with SK-MEL-5; 0.148 µM (active) in the experiment with COLO 205. Also, the GI50 with T47D was < 0.01 µM (active); in the experiment on MDA-N, 0.0419 µM (active); with MCF7, < 0.01 µM (active); in the experiment with SN12C it was < 0.01 µM (active); in the experiment with Malme-3M, 0.0543 µM (active); in the experiment with NCI-H522 it was < 0.0116 µM (active). Further, in the experiment on M14, the GI50 is < 0.0105 µM (active).

The record behind these values is ChEMBL document CHEMBL1201862, “PubChem BioAssay data set” (2004).
